For test [1], the system named is Candida albicans ATCC 10231. Nature of the test: antimicrobial serial microdilution, C. albicans. It counts as cell-based. The note with it: serial microdilution, 35 °C, 48 h. (Broth dilution looks for growth in wells or tubes with falling amounts of substance.)
Test [2] concerns S. cerevisiae (backgrounds W303 and BY4741). Nature of the test: antimicrobial serial microdilution, S. cerevisiae. Type of test: cell-based, Saccharomyces cerevisiae. The following applies: Saccharomyces cerevisiae; serial microdilution, 35 °C, 48 h; read-out: MIC S. cerevisiae.
In test [3] the test system is Staphylococcus aureus ATCC 29213. Nature of the test: antimicrobial serial microdilution, S. aureus. Type of test: cell-based. The note with it: Staphylococcus aureus, ATCC29213; serial microdilution, 37 °C, 24 h.
The test system of the next test is P. aeruginosa ATCC 27853. Kind of test: antimicrobial serial microdilution, P. aeruginosa. It counts as cell-based. The following applies: Pseudomonas aeruginosa, ATCC27853, 37 °C, 24 h.
In test [4] the test system is promastigotes from L. mexicana (M379). Kind of test: leishmanicidal activity, MTT colorimetric assay. The following applies: Leishmania mexicana, 48 h exposure, 1% DMSO. It counts as cell-based.
The subject of test [5] is S. cerevisiae sod1 mutant cells (background BY4741). Kind of test: drop test, sod1 mutant yeast. It counts as cell-based, Saccharomyces cerevisiae. The note with it: 200 µg/mL, 48 h, 25 °C, compared to control. As to the method: Next, we wanted to evaluate the oxidative activity. To do this, drop test assays were performed with wild-type (W303 and BY4741 backgrounds) and sod1 (BY4741 background) yeast cells in the presence of 200 µg/mL of the analyzed Schiff bases (Figure 3). The SOD1 gene encodes superoxide dismutase 1, an enzyme with a major role in detoxifying ROS species generated during metabolism or because of environmental exposure. sod1 mutant cells are unprotected against oxidative agents, decreasing survival in their presence. […] Also, wild-type cells are shown as control, unaffected by the Schiff bases.
For the drop test with S. cerevisiae, wild-type strain (background W303), and wild type and sod1 mutant cells (background BY4741) were grown overnight in YPAD media until an optical density of 0.5 at 600 nm was reached (equivalent to 1 × 10^7 cells/mL). Three serial dilutions were prepared and 5 µL of each was spotted onto a plate (approximately 1 × 10^5, 1 × 10^4, 1 × 10^3, and 1 × 10^2 cells/spot). YPAD plates were supplemented with 200 µg/mL of each Schiff base, and one plate supplemented with 2% DMSO and one plate with YPAD without any drug were used as controls. Plates were incubated at 25 °C for 24, 48, and 72 h.

≈ marks a conversion by molar mass, not a printed value. Some results are limits rather than exact numbers.

The term IC50 denotes the concentration that gives 50% inhibition. For orientation: MIC means the lowest concentration that inhibits growth of the organism. For the molecule `Cc1c(N=Cc2ccccc2O)c(=O)n(-c2ccccc2)n1C` [Compound 3b, 4-(2-Hydroxybenzylideneamino)-1,5-dimethyl-2-phenyl-1H-pyrazol-3(2H)-one], the IC50 in test [1] (Candida albicans, ATCC10231) was 5.8 µg/mL (≈ 18.9 µM); in test [4], more than 200 µM. For the same molecule, the MIC is 13.2 ± 1.6 µg/mL (≈ 42.9 µM) in test [1] (Candida albicans, ATCC10231); more than 200 µg/mL in test [2]; more than 200 µg/mL in test [3]; more than 200 µg/mL with P. aeruginosa ATCC 27853. Moreover, the “NIC C. albicans” value in test [1] (noninhibitory concentration) is 3.0 ± 2.2 µg/mL. In addition, in test [5], the “sensitivity of sod1 cells in drop test” value is “sensitive”.

The record behind these values is PMC6696115, “Characterization of Antimicrobial, Antioxidant, and Leishmanicidal Activities of Schiff Base Derivatives of 4-Aminoantipyrine” (Molecules, 2019).
